Target: T1, human ERβ (Homo sapiens, UniProt Q92731)
T1 construct: purchased Life Technologies
Assay: PolarScreen ERβ competitive binding assay (fluorescence polarization)
Conditions: recombinant human ERβ 23 nM, 4.5 nM Fluormone ES2 Green, 2 h; approximate IC50; read-out: IC50 (displacement of Fluormone ES2 Green from ERβ)

T1 sequence (Q92731 whole entry): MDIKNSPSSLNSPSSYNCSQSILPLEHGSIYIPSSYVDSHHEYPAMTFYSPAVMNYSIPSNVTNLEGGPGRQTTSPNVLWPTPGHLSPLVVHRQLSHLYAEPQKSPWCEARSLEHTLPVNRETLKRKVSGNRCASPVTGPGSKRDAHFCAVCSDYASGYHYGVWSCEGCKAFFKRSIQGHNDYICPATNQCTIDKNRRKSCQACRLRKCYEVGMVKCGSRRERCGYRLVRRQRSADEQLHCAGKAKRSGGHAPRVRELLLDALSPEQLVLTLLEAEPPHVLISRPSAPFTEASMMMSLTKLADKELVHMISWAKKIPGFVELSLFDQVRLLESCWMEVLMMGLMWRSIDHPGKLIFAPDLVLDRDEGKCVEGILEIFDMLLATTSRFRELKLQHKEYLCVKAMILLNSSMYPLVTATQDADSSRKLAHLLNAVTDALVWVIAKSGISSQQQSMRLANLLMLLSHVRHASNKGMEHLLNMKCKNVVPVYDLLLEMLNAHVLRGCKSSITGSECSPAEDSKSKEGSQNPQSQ

IC50 [nM] | SMILES
9700 | OC[C@H]1O[C@@H](Oc2cc3c(O)cc(O)cc3[o+]c2-c2cc(O)c(O)c(O)c2)[C@H](O)[C@@H](O)[C@@H]1O [D3G, delphinidin-3-glucoside]
2800 | OC[C@H]1O[C@@H](Oc2cc3c(O)cc(O)cc3[o+]c2-c2ccc(O)c(O)c2)[C@H](O)[C@@H](O)[C@@H]1O [C3G, cyanidin-3-glucoside]
2300 | C[C@@H]1O[C@@H](OC[C@H]2O[C@@H](Oc3cc4c(O)cc(O)cc4[o+]c3-c3cc(O)c(O)c(O)c3)[C@H](O)[C@@H](O)[C@@H]2O)[C@H](O)[C@H](O)[C@H]1O [D3R, delphinidin-3-rutinoside]

Reference: article PMC6017224, “Phytoestrogenic Activity of Blackcurrant Anthocyanins Is Partially Mediated through Estrogen Receptor Beta” (Molecules : A Journal of Synthetic Chemistry and Natural …, 2017)
